Assay in all cases: KINOMEscan
Holding throughout (format): binding

In one test the target is T1, CSNK1D (Homo sapiens, UniProt P48730).
T1 construct: purchased Eurofins DiscoverX, LLC; host or cells: E. coli (T7 phage) or HEK-293

The target of the next test is T2, IKKα (Homo sapiens, UniProt O15111).
T2 construct: purchased Eurofins DiscoverX, LLC; host or cells: E. coli (T7 phage) or HEK-293
T2 sequence (O15111 1-745): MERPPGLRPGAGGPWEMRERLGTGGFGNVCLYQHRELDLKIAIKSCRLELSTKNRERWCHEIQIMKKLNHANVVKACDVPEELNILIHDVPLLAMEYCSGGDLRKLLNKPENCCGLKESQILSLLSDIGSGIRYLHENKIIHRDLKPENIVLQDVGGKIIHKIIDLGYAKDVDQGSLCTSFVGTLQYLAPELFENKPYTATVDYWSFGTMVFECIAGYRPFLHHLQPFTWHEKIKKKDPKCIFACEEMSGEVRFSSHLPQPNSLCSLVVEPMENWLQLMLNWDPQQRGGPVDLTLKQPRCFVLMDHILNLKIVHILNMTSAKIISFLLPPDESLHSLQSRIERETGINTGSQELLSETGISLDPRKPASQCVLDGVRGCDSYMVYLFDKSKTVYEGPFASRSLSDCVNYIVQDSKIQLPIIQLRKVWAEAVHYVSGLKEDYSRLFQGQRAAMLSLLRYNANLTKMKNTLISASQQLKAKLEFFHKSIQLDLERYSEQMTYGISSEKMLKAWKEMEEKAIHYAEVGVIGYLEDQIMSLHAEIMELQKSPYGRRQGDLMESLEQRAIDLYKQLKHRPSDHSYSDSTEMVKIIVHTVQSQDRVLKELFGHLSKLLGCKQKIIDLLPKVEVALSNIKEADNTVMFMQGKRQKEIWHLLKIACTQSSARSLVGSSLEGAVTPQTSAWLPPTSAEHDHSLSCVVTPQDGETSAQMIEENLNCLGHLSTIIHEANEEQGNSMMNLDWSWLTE

A further test has as its target T3, ERK 2 (Homo sapiens, UniProt P28482).
T3 construct: purchased Eurofins DiscoverX, LLC; host or cells: E. coli (T7 phage) or HEK-293

In a further test the target is T4, ADCK3 (Homo sapiens, UniProt Q8NI60).
T4 construct: purchased Eurofins DiscoverX, LLC; host or cells: E. coli BL21-derived (T7 phage) or HEK-293

The next test has as its target T5, RAF1 (Homo sapiens, UniProt P04049).
T5 construct: purchased Eurofins DiscoverX, LLC; host or cells: E. coli BL21-derived host (T7 phage) or HEK-293

In another test the target is T6, RIOK2 (Homo sapiens, UniProt Q9BVS4).
T6 construct: purchased Eurofins DiscoverX, LLC; host or cells: E. coli BL21-derived host (T7 phage) or HEK-293

For the next test, the target named is T7, AKT2 (Homo sapiens, UniProt P31751).
T7 construct: purchased Eurofins DiscoverX, LLC; host or cells: E. coli BL21-derived (T7 phage) or HEK-293

For another test, the target named is T8, p38β (Homo sapiens, UniProt Q15759).
T8 construct: purchased Eurofins DiscoverX, LLC; host or cells: E. coli (BL21-derived, T7 phage) or HEK-293

A further test addresses T9, JNK3 (Homo sapiens, UniProt P53779).
T9 construct: purchased Eurofins DiscoverX, LLC; host or cells: E. coli (BL21-derived, T7 phage) or HEK-293

Another test has as its target T10, NLK (Homo sapiens, UniProt Q9UBE8).
T10 construct: purchased Eurofins DiscoverX, LLC; host or cells: E. coli (BL21-derived, T7 phage) or HEK-293
T10 sequence (Q9UBE8 1-527): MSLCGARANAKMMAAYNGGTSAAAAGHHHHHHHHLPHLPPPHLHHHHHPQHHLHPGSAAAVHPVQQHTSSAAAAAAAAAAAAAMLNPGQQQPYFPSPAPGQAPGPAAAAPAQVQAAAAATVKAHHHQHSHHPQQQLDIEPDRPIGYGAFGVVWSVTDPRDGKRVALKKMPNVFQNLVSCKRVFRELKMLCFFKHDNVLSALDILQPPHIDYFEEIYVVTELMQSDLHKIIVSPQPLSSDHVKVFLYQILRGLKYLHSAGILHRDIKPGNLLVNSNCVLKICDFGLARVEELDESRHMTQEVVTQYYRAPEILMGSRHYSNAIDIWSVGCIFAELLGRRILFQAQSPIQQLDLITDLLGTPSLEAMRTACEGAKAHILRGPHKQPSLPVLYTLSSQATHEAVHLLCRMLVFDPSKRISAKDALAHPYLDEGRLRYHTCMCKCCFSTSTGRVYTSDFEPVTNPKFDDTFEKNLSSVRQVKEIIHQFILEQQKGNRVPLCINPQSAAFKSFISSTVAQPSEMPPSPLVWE

Experimental findings from PMC12406203 (Journal of Medicinal Chemistry, 2025) are described below.

T5 sequence (P04049 whole entry): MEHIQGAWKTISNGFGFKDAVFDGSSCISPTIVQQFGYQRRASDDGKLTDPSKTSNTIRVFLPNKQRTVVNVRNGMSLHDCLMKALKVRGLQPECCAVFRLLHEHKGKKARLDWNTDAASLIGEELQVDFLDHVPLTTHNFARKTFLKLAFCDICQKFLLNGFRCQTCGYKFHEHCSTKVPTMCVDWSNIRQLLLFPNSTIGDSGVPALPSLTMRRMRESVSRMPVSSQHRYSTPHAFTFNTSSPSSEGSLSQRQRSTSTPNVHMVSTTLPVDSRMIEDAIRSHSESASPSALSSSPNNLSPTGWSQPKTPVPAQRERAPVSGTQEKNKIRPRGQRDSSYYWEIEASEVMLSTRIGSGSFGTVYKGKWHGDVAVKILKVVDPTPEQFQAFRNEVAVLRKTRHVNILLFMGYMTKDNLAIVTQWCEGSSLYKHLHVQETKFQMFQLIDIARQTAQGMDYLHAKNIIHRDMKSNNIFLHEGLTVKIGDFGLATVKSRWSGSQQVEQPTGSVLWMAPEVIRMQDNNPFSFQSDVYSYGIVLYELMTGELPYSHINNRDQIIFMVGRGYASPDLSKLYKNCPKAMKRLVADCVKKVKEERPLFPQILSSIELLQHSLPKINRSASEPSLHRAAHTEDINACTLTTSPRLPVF
T1 sequence (P48730 whole entry): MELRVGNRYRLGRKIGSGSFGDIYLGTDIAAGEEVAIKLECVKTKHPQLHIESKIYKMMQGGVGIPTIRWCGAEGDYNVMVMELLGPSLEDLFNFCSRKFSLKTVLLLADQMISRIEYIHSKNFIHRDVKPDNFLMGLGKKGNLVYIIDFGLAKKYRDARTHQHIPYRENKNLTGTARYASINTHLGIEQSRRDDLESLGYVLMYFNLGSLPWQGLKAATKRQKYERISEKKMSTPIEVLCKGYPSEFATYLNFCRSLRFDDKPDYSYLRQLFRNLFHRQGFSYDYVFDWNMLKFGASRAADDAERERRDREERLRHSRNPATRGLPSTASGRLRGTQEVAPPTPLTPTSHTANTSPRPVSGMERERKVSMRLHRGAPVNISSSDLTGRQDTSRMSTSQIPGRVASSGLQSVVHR
T9 sequence (P53779 whole entry): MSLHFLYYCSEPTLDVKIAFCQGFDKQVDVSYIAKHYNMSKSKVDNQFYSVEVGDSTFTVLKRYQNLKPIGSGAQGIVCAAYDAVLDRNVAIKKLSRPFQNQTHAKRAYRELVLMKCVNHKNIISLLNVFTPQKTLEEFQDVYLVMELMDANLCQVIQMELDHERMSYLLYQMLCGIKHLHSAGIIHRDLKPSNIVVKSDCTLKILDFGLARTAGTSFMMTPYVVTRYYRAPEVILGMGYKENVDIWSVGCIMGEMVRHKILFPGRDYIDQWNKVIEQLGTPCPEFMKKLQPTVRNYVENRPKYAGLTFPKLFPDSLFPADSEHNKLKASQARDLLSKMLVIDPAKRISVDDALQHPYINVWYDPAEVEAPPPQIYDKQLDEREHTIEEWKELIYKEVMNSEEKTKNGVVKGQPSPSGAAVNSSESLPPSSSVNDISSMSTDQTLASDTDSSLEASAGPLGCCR
T6 sequence (Q9BVS4 whole entry): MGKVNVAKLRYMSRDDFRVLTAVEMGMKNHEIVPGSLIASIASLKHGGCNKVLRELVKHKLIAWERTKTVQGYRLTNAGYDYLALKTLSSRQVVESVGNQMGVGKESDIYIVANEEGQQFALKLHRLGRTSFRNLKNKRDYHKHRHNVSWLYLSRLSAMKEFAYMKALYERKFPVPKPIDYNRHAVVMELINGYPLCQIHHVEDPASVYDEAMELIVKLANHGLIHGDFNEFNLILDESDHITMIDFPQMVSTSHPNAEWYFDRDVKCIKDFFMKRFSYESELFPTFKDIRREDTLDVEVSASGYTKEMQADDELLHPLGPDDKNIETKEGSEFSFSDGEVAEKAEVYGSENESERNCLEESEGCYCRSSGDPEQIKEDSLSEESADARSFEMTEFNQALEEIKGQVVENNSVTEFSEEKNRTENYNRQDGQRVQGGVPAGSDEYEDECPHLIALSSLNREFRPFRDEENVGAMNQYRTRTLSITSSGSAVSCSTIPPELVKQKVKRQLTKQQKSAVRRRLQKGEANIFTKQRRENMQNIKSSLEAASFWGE
T8 sequence (Q15759 whole entry): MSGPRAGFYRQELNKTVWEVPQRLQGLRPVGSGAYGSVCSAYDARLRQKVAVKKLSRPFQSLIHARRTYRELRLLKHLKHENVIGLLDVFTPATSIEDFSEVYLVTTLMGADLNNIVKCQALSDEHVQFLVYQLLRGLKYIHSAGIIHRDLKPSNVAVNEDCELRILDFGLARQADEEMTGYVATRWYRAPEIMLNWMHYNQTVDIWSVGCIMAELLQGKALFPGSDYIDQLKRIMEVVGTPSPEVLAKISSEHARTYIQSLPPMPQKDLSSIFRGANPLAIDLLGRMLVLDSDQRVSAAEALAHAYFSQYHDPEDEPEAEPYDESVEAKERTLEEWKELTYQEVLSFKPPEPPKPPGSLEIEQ
T3 sequence (P28482 whole entry): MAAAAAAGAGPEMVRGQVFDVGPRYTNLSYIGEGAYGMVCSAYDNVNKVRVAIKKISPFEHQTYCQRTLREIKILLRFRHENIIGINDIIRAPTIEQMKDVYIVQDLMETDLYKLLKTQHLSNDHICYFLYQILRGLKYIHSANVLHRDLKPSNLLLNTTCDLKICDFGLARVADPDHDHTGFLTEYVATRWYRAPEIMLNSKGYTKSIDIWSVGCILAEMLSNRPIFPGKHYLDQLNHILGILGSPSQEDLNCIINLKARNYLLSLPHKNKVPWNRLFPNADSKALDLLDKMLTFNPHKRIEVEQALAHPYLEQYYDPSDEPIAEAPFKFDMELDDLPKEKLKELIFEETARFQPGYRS
T7 sequence (P31751 whole entry): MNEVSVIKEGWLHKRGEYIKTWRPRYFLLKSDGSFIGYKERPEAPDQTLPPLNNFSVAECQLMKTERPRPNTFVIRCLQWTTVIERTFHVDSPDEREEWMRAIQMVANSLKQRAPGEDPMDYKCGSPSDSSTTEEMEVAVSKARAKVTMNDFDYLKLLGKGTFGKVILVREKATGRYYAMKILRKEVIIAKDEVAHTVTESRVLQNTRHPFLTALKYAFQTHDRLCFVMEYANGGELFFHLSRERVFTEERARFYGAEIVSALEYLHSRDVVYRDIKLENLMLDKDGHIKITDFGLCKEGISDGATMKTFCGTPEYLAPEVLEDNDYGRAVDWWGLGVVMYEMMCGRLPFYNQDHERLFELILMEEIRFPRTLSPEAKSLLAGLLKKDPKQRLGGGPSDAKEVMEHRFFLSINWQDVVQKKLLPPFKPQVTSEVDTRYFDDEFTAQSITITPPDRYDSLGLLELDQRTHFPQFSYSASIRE
T4 sequence (Q8NI60 163-647): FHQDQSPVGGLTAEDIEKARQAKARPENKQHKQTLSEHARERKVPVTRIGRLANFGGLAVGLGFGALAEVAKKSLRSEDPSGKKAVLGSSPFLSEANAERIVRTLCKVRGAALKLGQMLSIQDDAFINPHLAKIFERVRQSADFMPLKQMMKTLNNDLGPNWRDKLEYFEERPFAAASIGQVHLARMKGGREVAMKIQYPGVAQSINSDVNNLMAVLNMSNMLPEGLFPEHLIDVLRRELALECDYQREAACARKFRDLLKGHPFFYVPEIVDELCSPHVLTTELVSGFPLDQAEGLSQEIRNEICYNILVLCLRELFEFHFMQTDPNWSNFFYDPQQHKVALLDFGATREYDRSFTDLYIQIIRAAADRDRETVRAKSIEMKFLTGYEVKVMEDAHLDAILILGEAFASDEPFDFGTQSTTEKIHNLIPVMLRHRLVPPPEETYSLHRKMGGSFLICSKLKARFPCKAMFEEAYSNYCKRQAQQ

`CC(C)Cn1ncc2cc(Cc3ccc(F)cc3F)c(C(=O)NCCN(C)C)cc21` [Compound 94, 5-(2,4-Difluorobenzyl)-N-(2-(dimethylamino)ethyl)-1-isobutyl-1H-indazole-6-carboxamide]: the “RA @ 1000nM” value at CSNK1D is 86%; at IKKα it was 82%; on ERK 2 it was 100%; on ADCK3 it was 100%; at RAF1 it was 100%; on RIOK2, 85%. Besides, the “RA @ 1000nM” value at AKT2 was 89%; on p38β it was 72%; on JNK3 it was 55%; at NLK, 100%. Further, the “RA @ 10000nM” value on CSNK1D is reported as 79%; on IKKα, 87%; at ERK 2, 98%; on ADCK3, 100%; on RAF1, 100%; on RIOK2, 92%. The “RA @ 10000nM” value was determined as 76% on AKT2, 15% on p38β, 6.8% at JNK3 and 98% on NLK.
On to `CN(C)CCNC(=O)c1cc2c(cnn2CC2CCCCC2)cc1Cc1ccc(F)cc1F` [Compound 95, 1-(Cyclohexylmethyl)-5-(2,4-difluorobenzyl)-N-(2-(dimethylamino)ethyl)-1H-indazole-6-carboxamide], for which the “RA @ 1000nM” value on CSNK1D stood at 93%; on IKKα, 92%; on ERK 2 it was 100%; on ADCK3, 100%; at RAF1, 100%; at RIOK2, 88%. Further, the “RA @ 1000nM” value at AKT2 was 100%; on p38β, 84%; on JNK3, 48%; on NLK it was 100%. For the same molecule, the “RA @ 10000nM” value at CSNK1D came out at 84%; at IKKα, 75%; at ERK 2, 100%; on ADCK3 it was 81%; on RAF1, 100%; on RIOK2, 81%. In addition, the “RA @ 10000nM” value came to 88% on AKT2, 18% on p38β, 3.7% at JNK3 and 100% on NLK.
